Assay results: US20040087539A1, “Method of treating conditions related to platelet activity” (priority 2003, published 2004)

Experiments:
platelets [1] = assay: Ristocetin-induced vWF-dependent platelet aggregation in platelet-rich plasma; assay type: cell-based, human; conditions: for integrin-dependent second wave of platelet aggregation induced by ristocetin: PRP preincubated 37° C. 5 min, KT5823 2 pM, Rp-8pCPT-cGMP 0.2 μM, KT5720 2 pM [sic], FIG. 3A
Experimental: (§1) Fresh blood from healthy volunteers was anticoagulated with 1/7 volume of ACD (2.5% trisodium citrate, 2% dextrose and 1.5% citric acid). Platelets were washed with CGS buffer (sodium chloride 0.12 M, trisodium citrate 0.0129 M and d-glucose 0.03 M, pH 6.5), resuspended in modified Tyrode's solution and allowed to incubate at 22° C. for 1 hours as previously described. In experiments using platelet-rich plasma (PRP), 1/10 volume of 3.8% trisodium citrate was used as anticoagulant. Platelet aggregation was measured using a turbidometric platelet aggregometer (Chrono-Log) at 37° C. vWF-dependent platelet aggregation was induced by addition of ristocetin or botrocetin to PRP. To differentiate CPIb-IX-mediated platelet agglutination from the second wave of integrin-dependent platelet aggregation, final concentrations of ristocetin were adjusted in each experiment to achieve a two-wave curve of aggregation. Washed platelets were used in platelet aggregation induced by a-thrombin (Enzyme Research Laboratories). To examine the effects of PKG, 100 μM of membrane permeable cGMP analogs, 8-bromo-cGMP or 8-dibutyl-cGMP (Calbiochem), or 1 μM sildenafil citrate (Pfizer) and added simultaneously with subthreshold concentrations of agonists. PKG inhibitors KT5823 (2 pM) and Rp-8PCPT-cGMP (0.2 mM) were preincubated with platelets at 37° C. for 5 minutes before addition of agonists.
(§2) In FIG. 3A, platelet rich-plasma (PRP) was preincubated at 37° C. for 5 mm with PKG inhibitors KT5823 (2 pM) or Rp-8pCPT-cGMP (0.2 μM). PRP was also incubated with DMSO (vehicle for KT5823), a PKA inhibitor, KT5720 (2 pM), or buffer (Control). The vWF modulator, ristocetin, was then added to induce vWF-GPIb-IX interaction. […] In FIG. 3B, a subthreshold concentration of ristocetin was added to PRP immediately followed by addition of 8-bromo-cGMP or buffer (Control). PRP also was preincubated with integrin inhibitor RGDS before adding ristocetin and 8-bromo-cGMP. In FIG. 3C, platelets were preincubated with or without PKG inhibitor KT5823, then allowed to spread on vWF-coated glass chamber slides. Platelets were stained with an anti-GPIb antibody, and fluorescein-labeled secondary antibody. The slides were imaged under a confocal microscope (magnification =630×).
(§3) In FIG. 6A, increasing concentrations of sildenafil or control 0.15 M NaCl solution were added to platelet-rich plasma followed by a subthreshold concentration of ristocetin. Platelet aggregation was recorded using a platelet aggregometer. In FIG. 6B, sildenafil or control buffer was added to washed platelets followed by addition of subthreshold doses of thrombin to induce platelet aggregation. It was noted that platelet aggregation occurs in the presence of sildenafil. The figure includes the representative results of at least three experiments.
(§4) In FIG. 7A, PRP was preincubated with 0.1 mM 8-bromo-cGMP for increasing lengths of time at 37° C. as indicated. The vWF modulator, ristocetin (1.25 mg/ml), then was added to induce platelet aggregation in a turbidometric platelet aggregometer. In FIG. 7B, PRP was preincubated with a high concentration of 8-bromo-cGMP (1 mM) for 5 minutes. Ristocetin then was added to induce platelet aggregation. In FIGS. 7C and 7D, washed platelets in modified Tyrode's solution were preincubated with 1 mM 8-bromo-cGMP (C), or various concentrations of 8-pCPT-cGMP (D) at 37° C. for 5 minutes. Thrombin (0.05 u/ml) then was added to induce platelet aggregation.

platelets [2] = assay: Low-dose α-thrombin-induced aggregation of washed platelets; assay type: cell-based, human; conditions: for platelet aggregation induced by 0.05 units/ml α-thrombin: washed platelets preincubated 5 min, KT5823 2 μM, Rp-8pCPT-cGMP 0.2 mM, SZ2 40 pg/ml [sic], FIG. 5A
Experimental: as §1
In FIG. 5A, washed platelets were preincubated with 40 pg/mi anti-GPIba monoclonal antibody SZ2, integrin inhibitor RGDS, or inhibitors of PKG, KT5823 (2 μM) or Rp-8pCPT-cGMP (0.2 mM) (Calbiochem), for 5 min. Platelets also were preincubated with DMSO (vehicle for KT5823), KT5720 or buffer (Control) as controls. α-Thrombin (0.05 units/mi) then was added to induce platelet aggregation. Nonspecific JgG and RGES peptides also were examined as additional controls, but had no effect (not shown). In FIG. 5B, a subthreshold dose of thrombin was added to platelets immediately followed by addition of PKG activator 8-bromo-cGMP or buffer (Control). Shown in the figure are the representative results of at least three experiments.
as §3, §4

[3] = tested on: 123 cells (CHO cells expressing recombinant human GPIb-IX and integrin αIIbβ3); assay: vWF-induced GPIb-IX-mediated activation of integrin αIIbβ3 (Oregon green-labeled fibrinogen binding, flow cytometry); assay type: cell-based, Chinese Hamster; conditions: 123 cells; preliminary studies, data not shown
Experimental: Human PKG Iβ cDNA was cloned by RT-PCR, using human platelet mRNA as templates. Sequence of the human PKG Iβ cDNA fragment matches the published sequence. Cloning of human PKG Iα cDNA was described previously. PKG Iα or Iβ in pCDNA3.1/Zeo+vector was transfected into 123 cells (CHO cells expressing recombinant human CPIb-IX and integrin αIIbβ3 using Lipofectamine plus (BRL). Expression of PKG was assessed by Western blotting with an antihuman PKG I antibody (Calbiochem). The kinase activity of the expressed enzymes was measured in cell homogenates using BPDEtide (Calbiochem) as substrate as detailed previously. vWF-induced GPIb-IX-mediated activation of integrin αIIbβ3 was examined by flow cytometry analysis of Oregon green-labeled fibrinogen binding to integrln αIIbβ3 as described previously. Briefly, cells were detached from tissue culture plate using 0.5 mM EDTA, washed at 4° C. and resuspended in modified Tyrode's solution. Cells then were incubated with Oregon green-labeled fibrinogen (20 μg/ml) in the presence of ristocetin and vWF at 22° C. for 30 minutes, and analyzed by FACScalibur flow cytometer. Nonspecific binding of fibrinogen was estimated by measuring fibrinogon binding in the presence of a specific integrin inhibitor RGDS (1 mM) (see Refs. 13 and 43-45).
In FIG. 1A, CHO cells expressing GPLb-JX and integrin αIIbβ3 (123 cells) were transfected with cDNA encoding PKGIα or vector. Expression of PKG Ia in 123 cells was detected by Western blotting with an anti-human PKG I antibody (Insert), and recombinant PKG activity was determined in the absence or presence of 20 μM 8-bromo-cGMP as previously described. Results are expressed as mean +SD (n=3). For FIGS. 1B and 1C, reconstitution of GPIb-IX-mediated integrin activation in CHO cells was published (see Ref. 13). […] Cells were analyzed by flow cytometry. Quantitative results from three experiments are expressed as fibrinogen binding indices (total bound fluorescence (Fg)/nonspecifically bound fluorescence (Fg+RGDS)), and shown in FIG. 1B (mean ±SD).

platelets [4] = assay: Platelet spreading on vWF-coated surface; assay type: cell-based, human; conditions: FIG. 3C
Experimental: Platelets were allowed to adhere and spread on 10 μg/ml vWF-coated glass chamber slides (Nunc) at 37° C. for 1 hour. After three washes, platelets were fixed by adding 4% paraformaldehyde in PBS. Platelets were permeabilized by adding 0.1 M Tris, 0.01 M EGTA, 0.15 M NaCl, 5 mM MgCl2, pH 7.4, containing 0.1% Triton X-100, 0.5 mM leupeptin, 1 mM PMSF, and 0.1 mM E64, and then incubated with 20 μg/ml of anti-GPIba antibody (anti-IbαC) at 22° C. for 1 hour. Platelets were further incubated with fluorescein-labeled secondary antibody at 22° C. for 30 mm. After additional washes, platelets were scanned under a Zeiss LSM 510 confocai microscope (Magnification=630×).
as §2, with “Platelets were stained with an anti-GPIb antibody, and fluorescein-labeled secondary antibody. The slides were imaged under a confocal microscope (magnification =630×).” left out

platelets [5] = assay: Measurement of cGMP formation in washed platelets (enzyme immunoassay); assay type: cell-based, human; conditions: ristocetin plus vWF 15 μg/ml or glyco-SNAP1 100 μM, 5 minutes, FIG. 4
Experimental: Washed platelets (3×10^8/ml) resuspended in 400 μl Tyrode's buffer were stirred at 37° C. after addition of control buffer, 1 mg/mi ristocetin alone, 15 pg/mi vWF and 1 mg/mi ristocetin, or 100 μM glyco-SNP1. The reaction was stopped by addition of 400 μl of ice-cold 12% (w/v) trichloroacetic acid. Samples were mixed and centrifuged at 2000×g for 15 ruin at […]. Supenatant was removed and washed with 5 volumes of water-saturated diethyl ether 4 times, and then lyophilized. cGMP levels were measured using a cGMP enzyme immunoassay kit from Amersham-Pharmacia Biotech.
Washed platelets (3×10^8/ml) were preincubated at 37° C. for 10 mm with buffer, control JgG, a monoclonal antibody against GPIba, AK2. Platelets then were further incubated in a platelet aggregometer for 5 minutes after addition of buffer (Control), 1.25 mg/ml ristocetin only (Risto), ristocetin plus vWF (vWF) (15 μg/ml) or glyco-SNAP1 (100 μM). The reaction was stopped by addition of 400 μl of ice-cold 12% (w/v) trichloroacetic acid. CGMP concentrations were determined using a cGMP enzyme immunoassay kit. Results are expressed as mean ±SD (n=3).

[6] = tested on: CHO cells expressing human platelet receptors; assay: Cell adhesion to immobilized vWF under flow; assay type: cell-based, Chinese Hamster; conditions: sildenafil 5 μM, RGDS 4 mM
Experimental: CHO cells expressing human platelet receptors were resuspended in modified Tyrode's buffer, pH 7.4, containing 1 mg/mi of bovine serum albumin (BSA) (see Ref. 46), and final cell count was 5×10^5/ml. […] Purified human vWF (10 μg/ml in 0.1 M NaHCO3, pH 8.3) was added to glass microcapillary tubes (inner diameter of 1.33 mm and a length of 7.2 cm), and incubated at 4° C. for 20 h. The vWF-coated microcapillary tubes then were incubated with 5% BSA. After washing, the cell suspension was aspirated through the tube by a syringe pump (Harvard Apparatus Inc.) at desired shear rates for 1.2 minutes and washed with modified Tyrode's buffer for additional 10 minutes at the same shear rates to remove transiently adherent cells. The experiments were continuously recorded on videotape using a video cassette recorder (model 9500, Sony). The number of stably adherent cell on immobilized vWF was counted on images obtained at 20 randomly selected positions in the vWF-coated tubes.
In FIGS. 2A and B, vWF-coated capillary tubes were perfused with equivalent numbers (5×10^5/ml) of CHO cells expressing recombinant GPLb-JX alone (1b9), integrin αIIbβ3 alone (2b3a), both GPIb-IX and integrin αIIbβ3 (123) or expressing GPJb-JX, integrin α^IIbβ3 and PKG Ia (123PKG) at a shear rates of 800 s^−1 (A) or 1500 s^−1 (B) for 1.2 minutes, and then perfused with the modified Tyrodes buffer for 10 minutes at the same shear rates to wash out transient adherent cells. The expenments were recorded in real time. Cells stably adherent to vWF-coated capillary tubes at 20 randomly selected locations were counted.
In FIG. 2C, vector-transfected 123 cells (123) or 123PKG cells also was perfused into vWF-coated glass capillary tubes as described in FIG. 2A in the absence or presence (+RGDS) of an integrin inhibitor RGDS peptide (4 mM) and in the absence (Control) or presence of cGMP-enhancing drug, sildenafil (5 μM). […] The experiments were repeated at least three times.

## Nc1nc2c(nc(Sc3ccc(Cl)cc3)n2C2O[C@@H]3COP(=O)(O)O[C@H]3[C@H]2O)c(=O)[nH]1 (stereo in doubt) [8-pCPT-cGMP]
Platelets [1]; PRP, agent added with subthreshold ristocetin (1 mg/mm [sic]) (or botrocetin), FIGS. 3B, 6A
  platelet aggregation together with a subthreshold concentration of ristocetin: induced integrin-dependent platelet aggregation
Platelets [2]; 0.5 mM 8-pCPT-cGMP, washed platelets, thrombin 0.05 u/ml, FIG. 7D
  preincubation time required to inhibit platelets: less than 5 minutes

## CCCCCCOC(=O)[C@]1(O)C[C@@H]2O[C@@]1(C)n1c3ccccc3c3c4c(c5c6ccccc6n2c5c31)C(=O)NC4 [KT5720]
Platelets [1]
  integrin-dependent second wave of platelet aggregation induced by ristocetin: no inhibitory effects

## COC(=O)[C@@]1(OC)C[C@H]2O[C@]1(C)n1c3ccccc3c3c4c(c5c6ccccc6n2c5c31)C(=O)N(C)C4 [KT5823]
[3]
  GPIb-IX-mediated integrin activation: inhibited
Platelets [1]
  integrin-dependent second wave of platelet aggregation induced by ristocetin: abolished
Platelets [2]
  platelet aggregation induced by 0.05 units/ml α-thrombin: inhibited
Platelets [4]
  platelet spreading on a vWF-coated surface: inhibited

## Nc1nc2c(nc(Sc3ccc(Cl)cc3)n2C2OC3COP(O)(=S)OC3C2O)c(=O)[nH]1 (stereo not drawn) [Rp-8-pCPT-cGMP]
Platelets [1]
  integrin-dependent second wave of platelet aggregation induced by ristocetin: inhibited
Platelets [2]
  platelet aggregation induced by 0.05 units/ml α-thrombin: inhibited

## CC(=O)NC(C(=O)NC1OC(CO)C(O)C(O)C1O)C(C)(C)SN=O (stereo not drawn) [glyco-SNAP1]
Platelets [5]
  platelet cGMP levels: comparable

## RGDS
[6]; FIG. 2C, 8-bromo-cGMP not shown
  stable adhesion of PKG-expressing 123 cells (123PKG) to vWF under flow: inhibited
[6]
  stable adhesion of sildenafil-treated 123 cells to vWF under flow: inhibited
Platelets [2]
  platelet aggregation induced by 0.05 units/ml α-thrombin: inhibited

## RGES
Platelets [2]
  platelet aggregation induced by 0.05 units/ml α-thrombin: no effect

## vWF: purified human von Willebrand factor, ligand of GPIb-IX
Platelets [5]
  platelet cGMP levels: dramatic increase
